Data: patent publication US7109338B2, “1,2-disubstituted 1,4-dihydro-4-oxoquinoline compounds” (priority 1999, dated 2006)
≈ marks a conversion by molar mass, not a printed value.

What was measured:
[1] = test system: coxsackievirus type B4 (CB4,JVB); assay: In vitro anti-picornavirus activity (MTT), CB4; format: cell-based; settings: HeLa cells, MTT method, 37° C.
[2] = test system: human rhinovirus type 1B (HRV 1B, B632); assay: Anti-rhinovirus activity (MTT), HRV1B; format: cell-based; settings: HeLa (Ohio strain) cells, MTT method, 33° C.
HRV 89 (41617-Gallo) = assay: Anti-rhinovirus activity (MTT), HRV89; format: cell-based, human rhinovirus; settings: HeLa (Ohio strain) cells, MTT method, 33° C.
[3] = test system: echovirus type 11 (Echo 11, Gregory); assay: In vitro anti-picornavirus activity (MTT), Echo 11; format: cell-based; settings: HeLa-S3 cells, MTT method, 37° C.
HeLa cells = assay: Cytotoxicity (MTT, without virus), HeLa; settings: HeLa, no virus, incubated for 4 days
HeLa (Ohio strain)cells = assay: Cytotoxicity (MTT, without virus), HeLa(Ohio); settings: HeLa(Ohio), no virus, incubated for 4 days
HeLa-S3 cells = assay: Cytotoxicity (MTT, without virus), HeLa-S3; settings: HeLa-S3, no virus, incubated for 4 days
[4] = test system: Poliovirus type 1 (Polio 1, Sabin); assay: microbe, parasite or virus in culture; format: cell-based
HRV 2 (HGP) = assay: Anti-rhinovirus activity (MTT), HRV2; format: cell-based, human rhinovirus; settings: HeLa (Ohio strain) cells, MTT method, 33° C.
[5] = test system: coxsackievirus type A7 (CA7); assay: In vitro anti-picornavirus activity (MTT), CA7; format: cell-based; settings: HeLa-S3 cells, MTT method, 37° C.

SMILES | IC50 CB4 [1] [µg/mL] | IC50 HRV1B [2] [µg/mL] | IC50 HRV89 (HRV 89 (41617-Gallo)) [µg/mL] | IC50 Echo 11 [3] [µg/mL] | Cytotoxicity CC50 HeLa (HeLa cells) [µg/mL] | Cytotoxicity CC50 HeLa(Ohio) (HeLa (Ohio strain)cells) [µg/mL] | Cytotoxicity CC50 HeLa-S3 (HeLa-S3 cells) [µg/mL] | IC50 Polio 1 [4] [µg/mL] | IC50 HRV2 (HRV 2 (HGP)) [µg/mL] | IC50 CA7 [5] [µg/mL]
Cc1c(-c2cccs2)n(C)c2ccc(OCC(C)C)c(C)c2c1=O [Compound A318] | 0.65 (≈ 1.9 µM) | 0.45 (≈ 1.32 µM) | 0.16 (≈ 0.469 µM) | 0.27 (≈ 0.791 µM) | >2.5 | >2.5 | >2.5 | 0.47 (≈ 1.38 µM) | 0.38 (≈ 1.11 µM) | 2.0 (≈ 5.86 µM)
CCOc1ccc(-c2cc(=O)c3cc(C(C)C)ccc3n2C)cc1C [Compound A99] | 1.1 (≈ 3.28 µM) | 0.63 (≈ 1.88 µM) | 0.14 (≈ 0.417 µM) | 0.20 (≈ 0.596 µM) | 5.4 | 5.7 | 5.8 | 0.55 (≈ 1.64 µM) | 0.50 (≈ 1.49 µM) | 1.8 (≈ 5.37 µM)
Cc1c(OCC(C)C)ccc2c1c(=O)cc(-c1ccccc1)n2C [Compound A186] | 1.2 (≈ 3.73 µM) | 1.1 (≈ 3.42 µM) | 0.26 (≈ 0.809 µM) | 0.27 (≈ 0.84 µM) | >5 | 5.0 | >5 | 0.67 (≈ 2.08 µM) | >1.7 | 3.0 (≈ 9.33 µM)
CCn1c(-c2ccsc2)cc(=O)c2cc(C(C)C)ccc21 [Compound A313] | 3.0 (≈ 10.1 µM) | 0.90 (≈ 3.03 µM) | 0.96 (≈ 3.23 µM) | 0.35 (≈ 1.18 µM) | 18 | 15 | >20 | 0.94 (≈ 3.16 µM) | 0.33 (≈ 1.11 µM) | 3.8 (≈ 12.8 µM)
Cc1cc2c(c(C)c1OCC(C)C)c(=O)c(C)c(-c1ccccc1)n2C [Compound A286] | 1.4 (≈ 4.01 µM) | 0.87 (≈ 2.49 µM) | 0.61 (≈ 1.75 µM) | 0.57 (≈ 1.63 µM) | >5 | >5 | >5 | 1.3 (≈ 3.72 µM) | 0.23 (≈ 0.658 µM) | >5
CCn1c(-c2ccccc2)c(C)c(=O)c2cc(N3CCOCC3)ccc21 [Compound A169] | 18 (≈ 51.7 µM) | 8.2 (≈ 23.5 µM) | 5.4 (≈ 15.5 µM) | 1.1 (≈ 3.16 µM) | >50 | >50 | >50 | 4.3 (≈ 12.3 µM) | 1.0 (≈ 2.87 µM) | >50
CCn1c(-c2ccccc2)c(C)c(=O)c2c(C)c(OCC(C)C)ccc21 [Compound A188] | 1.1 (≈ 3.15 µM) | 0.81 (≈ 2.32 µM) | 0.25 (≈ 0.715 µM) | 0.27 (≈ 0.773 µM) | >5 | >5 | >5 | 0.31 (≈ 0.887 µM) | 0.33 (≈ 0.944 µM) | 1.2 (≈ 3.43 µM)
Cc1cc2c(c(C)c1OCC(C)C)c(=O)cc(-c1ccccc1)n2C [Compound A285] | 1.9 (≈ 5.66 µM) | 0.68 (≈ 2.03 µM) | 0.46 (≈ 1.37 µM) | 0.2 (≈ 0.596 µM) | >4 | >4 | >4 | 0.69 (≈ 2.06 µM) | 0.18 (≈ 0.537 µM) | 3.1 (≈ 9.24 µM)
CCn1c(-c2cccc(OC)c2)c(C)c(=O)c2cc(C(C)C)ccc21 [Compound A78] | 2.6 (≈ 7.75 µM) | 5.6 (≈ 16.7 µM) | 2.9 (≈ 8.65 µM) | 1.2 (≈ 3.58 µM) | >8 | >8 | >8 | 1.3 (≈ 3.88 µM) | 1.7 (≈ 5.07 µM) | 7.1 (≈ 21.2 µM)
CCn1c(-c2cccs2)cc(=O)c2cc(C(C)C)ccc21 [Compound A309] | 1.5 (≈ 5.04 µM) | 0.48 (≈ 1.61 µM) | 0.58 (≈ 1.95 µM) | 0.28 (≈ 0.941 µM) | 12 | 14 | 18 | 0.76 (≈ 2.56 µM) | 0.25 (≈ 0.841 µM) | 3.3 (≈ 11.1 µM)
CCn1c(-c2ccccc2)cc(=O)c2c(C)c(OCC(C)C)ccc21 [Compound A187] | 0.99 (≈ 2.95 µM) | 0.71 (≈ 2.12 µM) | 0.15 (≈ 0.447 µM) | 0.21 (≈ 0.626 µM) | >4 | >4 | >4 | 0.53 (≈ 1.58 µM) | 0.57 (≈ 1.7 µM) | 3.0 (≈ 8.94 µM)
COc1cc2c(=O)c(C)c(-c3ccccc3)n(C)c2cc1C(C)C [Compound A226] | >3.3 | 1.6 (≈ 4.98 µM) | <0.033 | 0.33 (≈ 1.03 µM) | >10 | >10 | >10 | 0.93 (≈ 2.89 µM) | 0.73 (≈ 2.27 µM) | 9.7 (≈ 30.2 µM)
CCn1c(-c2ccccc2)c(C)c(=O)c2cc(NCC(C)C)ccc21.O [Compound A159] | 3.0 | 0.78 | 0.73 | 0.26 | >5 | >5 | >5 | 0.51 | 0.48 | 2.7
CC(C)c1ccc2c(c1)c(=O)cc(-c1ccco1)n2C [Compound A303] | 3.6 (≈ 13.5 µM) | 1.4 (≈ 5.24 µM) | 1.9 (≈ 7.11 µM) | 0.83 (≈ 3.1 µM) | >20 | >20 | >20 | 1.4 (≈ 5.24 µM) | 0.97 (≈ 3.63 µM) | 6.5 (≈ 24.3 µM)
COc1c(OCC(C)C)ccc2c1c(=O)c(C)c(-c1ccccc1)n2C [Compound A196] | 1.9 (≈ 5.41 µM) | 5.9 (≈ 16.8 µM) | 0.86 (≈ 2.45 µM) | 0.44 (≈ 1.25 µM) | >10 | >10 | >10 | 1.1 (≈ 3.13 µM) | 1.8 (≈ 5.12 µM) | 9.7 (≈ 27.6 µM)
CCn1c(-c2cccc(C)c2)c(C)c(=O)c2c(Cl)c(OCC(C)C)ccc21 [Compound A181] | 1.8 (≈ 4.69 µM) | 1.6 (≈ 4.17 µM) | 0.46 (≈ 1.2 µM) | 0.24 (≈ 0.625 µM) | >2.5 | >2.5 | >2.5 | 0.39 (≈ 1.02 µM) | 0.94 (≈ 2.45 µM) | 2.4 (≈ 6.25 µM)
CCn1c(-c2cccc(F)c2)c(C)c(=O)c2cc(C(C)C)ccc21 [Compound A60] | 2.8 (≈ 8.66 µM) | 0.59 (≈ 1.82 µM) | 1.1 (≈ 3.4 µM) | 0.52 (≈ 1.61 µM) | 5.3 | 5.7 | 7.0 | 1.1 (≈ 3.4 µM) | 0.52 (≈ 1.61 µM) | 2.5 (≈ 7.73 µM)
CC(C)c1ccc2c(c1)c(=O)cc(-c1ccn(C)c1)n2C [Compound A306] | 2.1 (≈ 7.49 µM) | 0.89 (≈ 3.17 µM) | 0.88 (≈ 3.14 µM) | 0.49 (≈ 1.75 µM) | 14 | 25 | 26 | 0.83 (≈ 2.96 µM) | 0.73 (≈ 2.6 µM) | 2.9 (≈ 10.3 µM)
Cc1c(-c2ccccc2)n(C)c2cc(C(C)C)c(OC(C)C)cc2c1=O [Compound A258] | >1.6 | 0.62 (≈ 1.77 µM) | 0.66 (≈ 1.89 µM) | 0.23 (≈ 0.658 µM) | 4.5 | 4.9 | >5 | 0.62 (≈ 1.77 µM) | 0.45 (≈ 1.29 µM) | 4.9 (≈ 14 µM)
CCn1c(-c2ccn(C)c2)cc(=O)c2cc(C(C)C)ccc21 [Compound A307] | 1.3 (≈ 4.42 µM) | 0.83 (≈ 2.82 µM) | 0.86 (≈ 2.92 µM) | 0.34 (≈ 1.15 µM) | >20 | 18 | >20 | 0.79 (≈ 2.68 µM) | 0.39 (≈ 1.32 µM) | 1.9 (≈ 6.45 µM)
